Experiments:
[1] = test system: CHOP; assay: CHOP quantitative immunofluorescence in soma after axonal Aβ1-42/Aβ42; format: cell-based, rat; conditions: axonal treatment; Aβ oligomers 36 hours, nelfinavir in the last 24 hours
Experimental: Hippocampi were dissected from embryonic day (E) 16-18 rat embryos obtained from pregnant Sprague-Dawley dams (Envigo). All animal procedures were approved by the Institutional Animal Care and Use Committee at Columbia University. Cell dissociation was performed using TripLE Express. Neurons (50,000-60,000 per microfluidic chamber) were plated on 0.1 mg ml^-1 poly-D-lysine (Millipore Sigma) and 2 μg ml^-1 laminin (Bio-Techne) coated substrates and grown in Neurobasal supplemented with 10% fetal bovine serum, 2 mM L-glutamine, 1 mM sodium pyruvate, and antibiotics (50 U ml^-1 penicillin-streptomycin). Tripartite microfluidic chambers were produced with Dow Corning Sylgard 184 Silicone Encapsulant Clear Kit (10:1 mix ratio; Ellsworth Adhesives) cured at […] for at least 4 hours following published protocols (Park et al. 2006; Desai et al. 2009). Chamber design incorporated two sets of 200-μm-long microgroove barriers to exclude crossing of cell bodies and dendrites (Taylor et al. 2005; […] et al. 2009). After 24 hours, medium was changed to Neurobasal containing 1×B27 and 2 mM L-glutamine. Subsequent medium changes (half volumes) were performed at DIV4 and thereafter every 3-5 days. […] Mean pixel intensity values were computed after background fluorescence subtraction.

[2] = test system: CREB3L2-ATF4 heterodimers; assay: Proximity ligation assay (PLA) of axonal CREB3L2-ATF4 heterodimers; format: cell-based, rat; conditions: axons treated with Aβ oligomers for 36 hours plus nelfinavir
Experimental: Hippocampi were dissected from embryonic day (E) 16-18 rat embryos obtained from pregnant Sprague-Dawley dams (Envigo). All animal procedures were approved by the Institutional Animal Care and Use Committee at Columbia University. Cell dissociation was performed using TripLE Express. Neurons (50,000-60,000 per microfluidic chamber) were plated on 0.1 mg ml^-1 poly-D-lysine (Millipore Sigma) and 2 μg ml^-1 laminin (Bio-Techne) coated substrates and grown in Neurobasal supplemented with 10% fetal bovine serum, 2 mM L-glutamine, 1 mM sodium pyruvate, and antibiotics (50 U ml^-1 penicillin-streptomycin). Tripartite microfluidic chambers were produced with Dow Corning Sylgard 184 Silicone Encapsulant Clear Kit (10:1 mix ratio; Ellsworth Adhesives) cured at […] for at least 4 hours following published protocols (Park et al. 2006; Desai et al. 2009). Chamber design incorporated two sets of 200-μm-long microgroove barriers to exclude crossing of cell bodies and dendrites (Taylor et al. 2005; […] et al. 2009). After 24 hours, medium was changed to Neurobasal containing 1×B27 and 2 mM L-glutamine. Subsequent medium changes (half volumes) were performed at DIV4 and thereafter every 3-5 days. To prevent glial cell proliferation, medium changes included 5-flurodeoxyuridine and uridine (final concentration […]; Millipore Sigma) after DIV4. […]

For `Cc1c(O)cccc1C(=O)N[C@@H](CSc1ccccc1)[C@H](O)CN1C[C@H]2CCCC[C@H]2C[C@H]1C(=O)NC(C)(C)C` [nelfinavir], which “downstream induction of CHOP expression in the soma” value [1] is on record?
Its value is “abolished”.

What about the “CREB3L2-ATF4 complexes/heterodimers in axons (PLA)” value [2] of the same molecule?
Its value is “caused the accumulation”.
